Measured values as given in patent publication US20240058343A1, “TREATMENT OF URTICARIA USING JAK INHIBITORS” (Incyte Corporation, priority 2022, published 2024).
Like-named read-outs stand apart in the source and are kept apart here.

Legend:
[1] = molecular target: human JAK1 (a.a. 837-1142) (Homo sapiens, UniProt P23458); assay: In vitro JAK kinase assay (HTRF), JAK1; type: biochemical; settings: 1 mM ATP
Method: (§1) The catalytic activity of JAK1, JAK2 or JAK3 was assayed by measuring the phosphorylation of a biotinylated peptide. The phosphorylated peptide was detected by homogenous time resolved fluorescence (HTRF). IC5os of compounds are measured for each kinase in the 40 microL reactions that contain the enzyme, ATP and 500 nM peptide in 50 mM Tris (pH 7.8) buffer with 100 mM NaCl, 5 mM DTT, and 0.1 mg/mL (0.01%) BSA. […] Reactions are carried out at room temperature for 1 hour and then stopped with 20 μL 45 mM EDTA, 300 nM SA-APC, 6 nM Eu-Py20 in assay buffer (Perkin Elmer, Boston, MA). Binding to the Europium labeled antibody takes place for 40 minutes and HTRF signal was measured on a Fusion plate reader (Perkin Elmer, Boston, MA).

[2] = molecular target: JAK2 (a.a. 828-1132) (Homo sapiens (Human), UniProt O60674); assay: In vitro JAK kinase assay (HTRF), JAK2, for JAK2/JAK1 ratio; type: biochemical; settings: IC50 ratio at 1 mM ATP
Method: as §1

[3] = test system: IgE; settings: CSU patients, after 12 weeks, with second-generation H1 antihistamine, cited from earlier work
[4] = test system: CSU skin; assay: Ex vivo culture of CSU lesional skin biopsies, RNA-seq gene expression; type: cell-based, human
Method: Full-thickness cutaneous skin biopsies were obtained from active disease, untreated, urticaria patients. A single 4mm-punch biopsy was obtained from the same lesion for each patient and longitudinally divided into two pieces. Biopsies were cultured for 24 hours in KBM media+CaCl2, with or without compound (i.e., Compound 1) or DMSO (control). After 24 hours, tissue RNA was isolated for subsequent analysis. RNA extracts were quantified with the Qubit fluorometer (Invitrogen) and quality assessed by TapeStation automated electrophoresis (Agilent Technologies). Total RNA (250 ng) treated with amplification-grade DNase I (Invitrogen) were enriched for non-ribosomal RNA using the NEBNext rRNA Depletion Kit v2 (New England BioLabs). Library preparation was performed with the NEBNext Ultra II Directional RNA Library Prep Kit for Illumina (New England BioLabs) following the manufactures protocol for library preparation of intact or partially degraded RNA (section 2). For comparability, the same protocol was used for all samples. RNA-seq libraries were pooled and paired-end sequencing was performed on the NextSeq 2000 (Illumina) with an average sequencing depth of 200 M reads. FASTQ files were processed with Nextflow RNASeq pipeline (v. 22.10.1). […] The effects of JAK1 inhibition with Compound 1 on DEGs identified in the prior analysis were further evaluated. […]

Sequence of JAK2 (a.a. 828-1132) (O60674 828-1132): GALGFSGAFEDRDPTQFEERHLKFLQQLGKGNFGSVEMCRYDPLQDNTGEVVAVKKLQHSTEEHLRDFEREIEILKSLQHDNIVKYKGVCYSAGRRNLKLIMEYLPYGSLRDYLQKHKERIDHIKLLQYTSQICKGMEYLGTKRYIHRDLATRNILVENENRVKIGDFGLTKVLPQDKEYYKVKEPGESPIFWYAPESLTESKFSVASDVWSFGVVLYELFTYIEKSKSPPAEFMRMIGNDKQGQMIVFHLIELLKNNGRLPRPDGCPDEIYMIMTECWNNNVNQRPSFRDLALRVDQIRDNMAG

N#CCC1(n2cc(-c3ncnc4[nH]ccc34)cn2)CN(C2CCN(C(=O)Nc3ccc(F)cc3C(F)(F)F)CC2)C1 [compound 2, 4-{3-(Cyanomethyl)-3-[4-(7H-pyrrolo[2,3-d]pyrimidin-4-yl)-1H-pyrazol-1-yl]azetidin-1-yl}-N-[4-fluoro-2-(trifluoromethyl)phenyl] piperidine-1-carboxamide]
IC50 [1]: < 10 nM
JAK2/JAK1 [2]: >10

N#CCC(C1CCN(c2nc3cccnc3o2)C1)n1cc(-c2ncnc3[nH]ccc23)cn1 (stereo not drawn) [compound 7, 3-(1-[1,3]oxazolo[5,4-b]pyridin-2-ylpyrrolidin-3-yl)-3-[4-(7H-pyrrolo[2,3-d]pyrimidin-4-yl)-1H-pyrazol-1-yl]propanenitrile]
IC50 [1]: < 10 nM
JAK2/JAK1 [2]: >10

N#CCC(CN1CCN(C(=O)c2ccc(C#N)cc2F)CC1)n1cc(-c2ncnc3[nH]ccc23)cn1 (stereo not drawn) [compound 8, 4-[(4-{3-cyano-2-[4-(7H-pyrrolo[2,3-d]pyrimidin-4-yl)-1H-pyrazol-1-yl]propyl}piperazin-1-yl)carbanoyl]-3-fluorobenzonitrile]
IC50 [1]: < 10 nM
JAK2/JAK1 [2]: >10

N#CC[C@]1(n2cc(-c3ncnc4[nH]ccc34)cn2)C[C@H](N2CCC(Oc3cc(CCO)cc(C(F)(F)F)n3)CC2)C1 [compound 26, {trans-3-(4-{[4-(2-hydroxyethyl)-6-(trifluoromethyl)pyridin-2-yl]oxy}piperidin-1-yl)-1-[4-(7H-pyrrolo[2,3-d]pyrimidin-4-yl)-1H-pyrazol-1-yl]cyclobutyl}acetonitrile]
IC50 [1]: < 10 nM
JAK2/JAK1 [2]: >10

CCNCc1cc(O[C@H]2CC[C@@H](N3CC(CC#N)(n4cc(-c5ncnc6[nH]ccc56)cn4)C3)CC2)nc(C(F)(F)F)c1 [compound 19, {1-(cis-4-{[4-[(ethylamino)methyl]-6-(trifluoromethyl)pyridin-2-yl]oxy}cyclohexyl)-3-[4-(7H-pyrrolo[2,3-d]pyrimidin-4-yl)-1H-pyrazol-1-yl]azetidin-3-yl}acetonitrile]
IC50 [1]: < 10 nM
JAK2/JAK1 [2]: >10

N#CCC1(n2cc(-c3ncnc4[nH]ccc34)cn2)CN([C@H]2CC[C@@H](Oc3cc(CN4CC[C@H](O)C4)cc(C(F)(F)F)n3)CC2)C1 [compound 22, {1-(cis-4-{[4-{[(3S)-3-hydroxypyrrolidin-1-yl]methyl}-6-(trifluoromethyl)pyridin-2-yl]oxy}cyclohexyl)-3-[4-(7H-pyrrolo[2,3-d]pyrimidin-4-yl)-1H-pyrazol-1-yl]azetidin-3-yl}acetonitrile]
IC50 [1]: < 10 nM
JAK2/JAK1 [2]: >10

CC(C)(O)c1cc(O[C@H]2CC[C@@H](N3CC(CC#N)(n4cc(-c5ncnc6[nH]ccc56)cn4)C3)CC2)nc(C(F)(F)F)c1 [compound 20, {1-(cis-4-{[4-(1-hydroxy-1-methylethyl)-6-(trifluoromethyl)pyridin-2-yl]oxy}cyclohexyl)-3-[4-(7H-pyrrolo[2,3-d]pyrimidin-4-yl)-1H-pyrazol-1-yl]azetidin-3-yl}acetonitrile]
IC50 [1]: < 10 nM
JAK2/JAK1 [2]: >10

C[C@@H](CO)NCc1cc(OC2CCN([C@H]3C[C@](CC#N)(n4cc(-c5ncnc6[nH]ccc56)cn4)C3)CC2)nc(C(F)(F)F)c1 [compound 23, {trans-3-(4-{[4-({[(1S)-2-hydroxy-1-methylethyl]amino}meth-yl)-6-(trifluoromethyl)pyridin-2-yl]oxy}piperidin-1-yl)-1-[4-(7H-pyrrolo[2,3-d]pyrimidin-4-yl)-1H-pyrazol-1-yl]cyclobutyl}acetonitrile]
IC50 [1]: < 10 nM
JAK2/JAK1 [2]: >10

N#CCC(C1CCN(c2cccc(Cl)n2)C1)n1cc(-c2ncnc3[nH]ccc23)cn1 (single isomer, unassigned) [compound 6, 3-[1-(6-chloropyridin-2-yl)pyrrolidin-3-yl]-3-[4-(7H-pyrrolo[2,3-d]pyrimidin-4-yl)-1H-pyrazol-1-yl]propanenitrile]
IC50 [1]: < 10 nM
JAK2/JAK1 [2]: >10

N#CC[C@]1(n2cc(-c3ncnc4[nH]ccc34)cn2)C[C@H](N2CCC(Oc3cc(CN4CC(O)C4)cc(C(F)(F)F)n3)CC2)C1 [compound 11, {trans-3-(4-{[4-[(3-hydroxyazetidin-1-yl)methyl]-6-(trifluoromethyl)pyridin-2-yl]oxy}piperidin-1-yl)-1-[4-(7H-pyrrolo[2,3-d]pyrimidin-4-yl)-1H-pyrazol-1-yl]cyclobutyl}acetonitrile]
IC50 [1]: < 10 nM
JAK2/JAK1 [2]: >10

C[C@@H](O)CNCc1cc(OC2CCN([C@H]3C[C@](CC#N)(n4cc(-c5ncnc6[nH]ccc56)cn4)C3)CC2)nc(C(F)(F)F)c1 [compound 24, {trans-3-(4-{[4-({[(2R)-2-hydroxypropyl]amino}methyl)-6-(trifluoromethyl)pyridin-2-yl]oxy}piperidin-1-yl)-1-[4-(7H-pyrrolo[2,3-d]pyrimidin-4-yl)-1H-pyrazol-1-yl]cyclobutyl}acetonitrile]
IC50 [1]: < 10 nM
JAK2/JAK1 [2]: >10

N#CCC1(n2cc(-c3ncnc4[nH]ccc34)cn2)CN(C2CCN(C(=O)c3ccnc(C(F)(F)F)n3)CC2)C1 [compound 3, [3-[4-(7H-pyrrolo[2,3-d]pyrimidin-4-yl)-1H-pyrazol-1-yl]-1-(1-{[2-(trifluoromethyl)pyrimi-din-4-yl]carbonyl}piperidin-4-yl)azetidin-3-yl]acetonitrile]
IC50 [1]: < 10 nM
JAK2/JAK1 [2]: >10

Omalizumab: an anti-IgE monoclonal antibody (administered subcutaneously)
patients achieving a complete response [3]: approximately 35%
patients achieving a complete response ([3]; listed as omalizumab): ~35%

N#CCC1(n2cc(-c3ncnc4[nH]ccc34)cn2)CN(C2CCN(C(=O)c3ccnc(C(F)(F)F)c3F)CC2)C1 [compound 1, {1-{1-[3-Fluoro-2-(trifluoromethyl)isonico-tinoyl]piperidin-4-yl}-3-[4-(7H-pyrrolo[2,3-d]pyrimidin-4-yl)-1H-pyrazol-1-yl]azetidin-3-yl}acetonitrile]
IC50 [1]: < 10 nM
JAK2/JAK1 [2]: >10
PTX3 expression ([4]; CSU skin, 24 hour ex vivo treatment, FIG. 1): dramatically reduced
CCL2, S100A8, SELE and PTX3 expression ([4]; cultured CSU skin, 24 hours, vs DMSO control): altered expression
